Reference: patent publication US4963363A, “Phospholipid delivery vehicle for aqueous-insoluble active ingredients” (priority 1989, dated 1990)
Where a name gives a salt, the structure may show the parent alone. Values belong to the compound of their own block, whether it stands above or below them.

Experiments:
[1] = Compatibility of lipid triglycerides with HXM solubilization and phospholipid emulsion
[2] = Solubility of HXM in pure triglycerides; format: physicochemical; details: organic solvent or mixture
[3] = cited from earlier work
humans = details: in vivo, iv; cited from earlier work

Structure (SMILES): CCCCCCCC/C=C\CCCCCCCC(=O)OCC(COC(=O)CCCCCCC/C=C\CCCCCCCC)OC(=O)CCCCCCC/C=C\CCCCCCCC [triolein]
ability of triglyceride to solubilize HXM [1]: ineffective at solubilizing HXM

solubility [2]: > 50000 µg/mL
Structure (SMILES): CN(C)c1nc(N(C)C)nc(N(C)C)n1 [HXM, 2,4,6-Tris(dimethylamino)-s-triazine]
solubility of the free drug in saline solution ([3]; saline solution, Wickes et al. 1985): 70 µg/mL | solubility of the free drug in water ([3]; water, Ames et al. 1982): 200 µg/mL

Structure (SMILES): CN(C)c1nc(N(C)C)nc(N(C)C)n1 [Gentisate salt of HXM]
local irritation (humans): severe local irritation
